Measurements: US7445894B2, “Compositions and methods for detection and isolation of phosphorylated molecules” (priority 2002, dated 2008)

How the values were obtained:
pepsin = pepsin (Sus scrofa, UniProt P00791); experiment: Detection of phosphoproteins in SDS-polyacrylamide gels with binding solution; settings: monophosphorylated protein, binding solution with gallium chloride, SDS polyacrylamide mini-gel
Protocol: (§1) Proteins were loaded in two-fold dilution series on SDS polyacrylamide mini-gels from 2 ng-1000 ng; each protein sample was done in series in four replicate gels. The phosphoproteins were α-casein (7 or 8 phosphates); dephosphorylated α-casein (1 or 2 phosphates); β-casein (5 phosphates); ovalbumin (2 phosphates) and pepsin (1 phosphate). BSA contains no phosphates and was used as a negative control.
(§2) Phosphoproteins were separated by SDS-polyacrylamide gel electrophoresis utilizing a 4% T, 2.6% C stacking gel, pH 6.8 and 13% T, 2.6% C separating gel, and pH 8.8, according to standard procedures. % T is the total monomer concentration (acrylamide+crosslinker) expressed in grams per 100 mL and % C is the percentage crosslinker (e.g., N,N′-methylene-bis-acrylamide, N,N′-diacryloylpiperazine or other suitable agent). The separating gels were 8 cm wide by 5 cm high and […] in thickness. After electrophoresis, the gels were fixed by immersing them in 100 mL 45% methanol and 5% acetic acid for 90 minutes. The gels were washed twice in water for a total of 30 minutes. The gels were then added to a binding solution of the invention (Example 1E) and incubated for 120 minutes at room temperature with gentle orbital shaking, typically 50 rpm. The binding buffer contained 50 mM NaOAc (pH 4.0), 250 mM sodium chloride, 20% v/v 1,2-propanediol, 1 μM gallium chloride. […]

β-casein = target: T1, β-casein (Bos taurus, UniProt P02666); experiment: as above; settings: pentaphosphorylated protein, binding solution with gallium chloride, SDS polyacrylamide mini-gel
T1 sequence (P02666 16-224): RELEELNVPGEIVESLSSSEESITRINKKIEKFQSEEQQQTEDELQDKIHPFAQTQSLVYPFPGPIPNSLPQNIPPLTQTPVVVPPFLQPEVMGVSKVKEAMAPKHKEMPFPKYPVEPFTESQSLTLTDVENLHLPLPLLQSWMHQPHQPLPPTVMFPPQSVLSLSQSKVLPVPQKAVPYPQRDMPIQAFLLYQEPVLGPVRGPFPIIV
Protocol: as §1, §2

pDSIP = target: T2, pDSIP (Oryctolagus cuniculus, UniProt P01158); experiment: Total phosphopeptide detection on microarray with binding solution; settings: 1 μM Compound 2, 1 μM GaCl3, pH 4.0
T2 construct: purchased SynPep Corporation
Protocol: (A) Three pairs of peptides, the phosphorylated and the non-phosporylated forms of Kemptide, pp60 c-src and DSIP, were arrayed on to HydroGel coated slides (Perkin Elmer) from a source plate (384-well) with a concentration of 0.95 μg/ml-0.5 mg/ml peptide in water, using the BioChip Arrayer™ (Perkin Elmer) as described in Example 20. For specific detection of the phosphopeptides on the array, the slides were incubated for 45 minutes on a rotisserie in a binding solution comprising 1 μM Compound 2, in buffer containing 0.5 M NaCl, 20% 1,2 propanediol, 1 μM GaCl3, and 0.05 M sodium acetate, pH 4.0. Slides were then washed three times for 15 minutes on a rotisserie in 0.05 M sodium acetate, pH 4.0, containing 4% acetonitrile followed by a 15 minute water wash. Slides were then spun briefly in a microarray high-speed centrifuge affixed with a rotor with a slide holder (Telechem) at ˜6000 rpm to remove excess liquid. After slides were dry, the arrays were imaged using the ScanArray® 5000 XL Microarray Analysis System (Packard Instrument Co., Meriden, Conn.) using the 543.5 nm laser and 570 nm emission filter. […] Using the 543.5 nm excitation and 570 nm emission filter, there was no signal detected. Using the 632.8 nm excitation and 670 nm emission filter, pp60 c-src (pY) was specifically detected to a sensitivity of 5.2 pg.

Sequence of pepsin (P00791 60-385): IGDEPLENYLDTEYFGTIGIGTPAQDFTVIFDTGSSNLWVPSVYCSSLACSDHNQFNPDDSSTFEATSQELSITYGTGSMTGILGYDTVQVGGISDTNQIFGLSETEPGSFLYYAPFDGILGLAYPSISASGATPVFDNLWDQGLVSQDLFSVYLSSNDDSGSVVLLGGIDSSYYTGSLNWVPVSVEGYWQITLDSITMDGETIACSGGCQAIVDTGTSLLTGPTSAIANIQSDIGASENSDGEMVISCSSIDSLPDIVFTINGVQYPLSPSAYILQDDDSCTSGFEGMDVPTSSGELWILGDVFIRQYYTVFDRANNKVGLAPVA

amount detectable in gel (pepsin): 8 ng
amount detectable in gel (β-casein): 1 to 2 ng
amount specifically labeled on microarray (pDSIP): 1.3 to 2.6 pg
Substance: Rhod-5F [Compound 2]
